# Data published in PubChem BioAssay (NCI).
#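 At the GI50, growth is halved. At the TGI there is no net growth.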
# How the values were obtained:
# Experiment in all cases: growth of human tumour cells (NCI), 384-well format
# HT29 colon = tested on: HT29 colon
# TK-10 renal = tested on: TK-10 renal
# NCI-H322M lung = tested on: NCI-H322M lung
# HOP-92 NSCLC = tested on: HOP-92 NSCLC
# A549 NSCLC = tested on: A549 NSCLC
# NCI/ADR-RES ovarian = tested on: NCI/ADR-RES ovarian
# UO-31 renal = tested on: UO-31 renal
# M14 melanoma = tested on: M14 melanoma
# 786-0 renal = tested on: 786-0 renal
# MDA-MB-468 breast = tested on: MDA-MB-468 breast
# HOP-62 NSCLC = tested on: HOP-62 NSCLC
# SK-MEL-28 melanoma = tested on: SK-MEL-28 melanoma
# OVCAR-5 ovarian = tested on: OVCAR-5 ovarian
# SNB-75 CNS = tested on: SNB-75 CNS
# LOX IMVI melanoma = tested on: LOX IMVI melanoma
# IGROV1 ovarian = tested on: IGROV1 ovarian
# SF-295 CNS = tested on: SF-295 CNS
# OVCAR-3 ovarian = tested on: OVCAR-3 ovarian
# UACC-62 melanoma = tested on: UACC-62 melanoma
# UACC-257 melanoma = tested on: UACC-257 melanoma
# HCC-2998 colon = tested on: HCC-2998 colon
# HCT-116 colon = tested on: HCT-116 colon
# SNB-19 CNS = tested on: SNB-19 CNS
# COLO 205 colon = tested on: COLO 205 colon
# NCI-H226 lung = tested on: NCI-H226 lung
# T-47D breast = tested on: T-47D breast
# NCI-H522 lung = tested on: NCI-H522 lung
# HCT-15 colon = tested on: HCT-15 colon
# SR leukemia = tested on: SR leukemia
# PC-3 prostate = tested on: PC-3 prostate
# HL-60(TB) leukemia = tested on: HL-60(TB) leukemia
# K-562 leukemia = tested on: K-562 leukemia
# NCI-H460 NSCLC = tested on: NCI-H460 NSCLC
# MALME-3M melanoma = tested on: MALME-3M melanoma
# MOLT-4 leukemia = tested on: MOLT-4 leukemia
# NCI-H23 lung = tested on: NCI-H23 lung
# HS 578T breast = tested on: HS 578T breast
# MDA-MB-435 melanoma = tested on: MDA-MB-435 melanoma
# BT-549 breast = tested on: BT-549 breast
# SF-539 CNS = tested on: SF-539 CNS
# SK-OV-3 ovarian = tested on: SK-OV-3 ovarian
# CCRF-CEM leukemia = tested on: CCRF-CEM leukemia
# RXF 393 renal = tested on: RXF 393 renal
# OVCAR-4 ovarian = tested on: OVCAR-4 ovarian
# MCF7 breast = tested on: MCF7 breast
# RPMI-8226 leukemia = tested on: RPMI-8226 leukemia
# DU-145 prostate = tested on: DU-145 prostate
# EKVX NSCLC = tested on: EKVX NSCLC
# A498 renal = tested on: A498 renal
# KM12 colon = tested on: KM12 colon
# MDA-MB-231 breast = tested on: MDA-MB-231 breast
# SK-MEL-5 melanoma = tested on: SK-MEL-5 melanoma
# U251 glioblastoma = tested on: U251 glioblastoma
# SK-MEL-2 melanoma = tested on: SK-MEL-2 melanoma
# SF-268 CNS = tested on: SF-268 CNS
# SW-620 colon = tested on: SW-620 colon
# CAKI-1 renal = tested on: CAKI-1 renal
structure (smiles),measurement,setting,value
Cc1nc(N)sc1-c1ccnc(Nc2ccc(N3CCOCC3)cc2)n1,GI50,HT29 colon,596 nM
same,TGI,HT29 colon,2140 nM
same,GI50,TK-10 renal,376 nM
same,TGI,TK-10 renal,7480 nM
same,GI50,NCI-H322M lung,1650 nM
same,TGI,NCI-H322M lung,26900 nM
same,GI50,HOP-92 NSCLC,433 nM
same,TGI,HOP-92 NSCLC,4490 nM
same,GI50,A549 NSCLC,440 nM
same,TGI,A549 NSCLC,7610 nM
same,GI50,NCI/ADR-RES ovarian,2650 nM
same,TGI,NCI/ADR-RES ovarian,> 100000 nM
same,GI50,UO-31 renal,619 nM
same,TGI,UO-31 renal,3090 nM
same,GI50,M14 melanoma,2410 nM
same,TGI,M14 melanoma,28000 nM
same,GI50,786-0 renal,1420 nM
same,TGI,786-0 renal,6740 nM
same,GI50,MDA-MB-468 breast,132 nM
same,TGI,MDA-MB-468 breast,330 nM
same,GI50,HOP-62 NSCLC,504 nM
same,TGI,HOP-62 NSCLC,4580 nM
same,GI50,SK-MEL-28 melanoma,1380 nM
same,TGI,SK-MEL-28 melanoma,7040 nM
same,GI50,OVCAR-5 ovarian,854 nM
same,TGI,OVCAR-5 ovarian,9330 nM
same,GI50,SNB-75 CNS,653 nM
same,TGI,SNB-75 CNS,2410 nM
same,GI50,LOX IMVI melanoma,767 nM
same,TGI,LOX IMVI melanoma,2530 nM
same,GI50,IGROV1 ovarian,305 nM
same,TGI,IGROV1 ovarian,2090 nM
same,GI50,SF-295 CNS,627 nM
same,TGI,SF-295 CNS,5700 nM
same,GI50,OVCAR-3 ovarian,1070 nM
same,TGI,OVCAR-3 ovarian,23100 nM
same,GI50,UACC-62 melanoma,482 nM
same,TGI,UACC-62 melanoma,3370 nM
same,GI50,UACC-257 melanoma,3680 nM
same,TGI,UACC-257 melanoma,9900 nM
same,GI50,HCC-2998 colon,3880 nM
same,TGI,HCC-2998 colon,42000 nM
same,GI50,HCT-116 colon,557 nM
same,TGI,HCT-116 colon,4160 nM
same,GI50,SNB-19 CNS,4420 nM
same,TGI,SNB-19 CNS,> 100000 nM
same,GI50,COLO 205 colon,756 nM
same,TGI,COLO 205 colon,16200 nM
same,GI50,NCI-H226 lung,416 nM
same,TGI,NCI-H226 lung,2530 nM
same,GI50,T-47D breast,5420 nM
same,TGI,T-47D breast,68600 nM
same,GI50,NCI-H522 lung,142 nM
same,TGI,NCI-H522 lung,3020 nM
same,GI50,HCT-15 colon,328 nM
same,TGI,HCT-15 colon,15300 nM
same,GI50,SR leukemia,32.9 nM
same,TGI,SR leukemia,121 nM
same,GI50,PC-3 prostate,463 nM
same,TGI,PC-3 prostate,8530 nM
same,GI50,HL-60(TB) leukemia,642 nM
same,TGI,HL-60(TB) leukemia,2400 nM
same,GI50,K-562 leukemia,1150 nM
same,TGI,K-562 leukemia,> 100000 nM
same,GI50,NCI-H460 NSCLC,224 nM
same,TGI,NCI-H460 NSCLC,3130 nM
same,GI50,MALME-3M melanoma,2700 nM
same,TGI,MALME-3M melanoma,> 100000 nM
same,GI50,MOLT-4 leukemia,22.4 nM
same,TGI,MOLT-4 leukemia,115 nM
same,GI50,NCI-H23 lung,1380 nM
same,TGI,NCI-H23 lung,7560 nM
same,GI50,HS 578T breast,302 nM
same,TGI,HS 578T breast,1560 nM
same,GI50,MDA-MB-435 melanoma,1740 nM
same,TGI,MDA-MB-435 melanoma,18700 nM
same,GI50,BT-549 breast,190 nM
same,TGI,BT-549 breast,676 nM
same,GI50,SF-539 CNS,499 nM
same,TGI,SF-539 CNS,1900 nM
same,GI50,SK-OV-3 ovarian,411 nM
same,TGI,SK-OV-3 ovarian,4870 nM
same,GI50,CCRF-CEM leukemia,127 nM
same,TGI,CCRF-CEM leukemia,1060 nM
same,GI50,RXF 393 renal,922 nM
same,TGI,RXF 393 renal,2570 nM
same,GI50,OVCAR-4 ovarian,46000 nM
same,TGI,OVCAR-4 ovarian,> 100000 nM
same,GI50,MCF7 breast,1620 nM
same,TGI,MCF7 breast,23200 nM
same,GI50,RPMI-8226 leukemia,375 nM
same,TGI,RPMI-8226 leukemia,2120 nM
same,GI50,DU-145 prostate,709 nM
same,TGI,DU-145 prostate,75500 nM
same,GI50,EKVX NSCLC,1350 nM
same,TGI,EKVX NSCLC,5830 nM
same,GI50,A498 renal,433 nM
same,TGI,A498 renal,3720 nM
same,GI50,KM12 colon,378 nM
same,TGI,KM12 colon,15300 nM
same,GI50,MDA-MB-231 breast,371 nM
same,TGI,MDA-MB-231 breast,4950 nM
same,GI50,SK-MEL-5 melanoma,1600 nM
same,TGI,SK-MEL-5 melanoma,8430 nM
same,GI50,U251 glioblastoma,1540 nM
same,TGI,U251 glioblastoma,17900 nM
same,GI50,SK-MEL-2 melanoma,2190 nM
same,TGI,SK-MEL-2 melanoma,5560 nM
same,GI50,SF-268 CNS,663 nM
same,TGI,SF-268 CNS,5730 nM
same,GI50,SW-620 colon,397 nM
same,TGI,SW-620 colon,2390 nM
same,GI50,CAKI-1 renal,381 nM
same,TGI,CAKI-1 renal,2050 nM
